Assays:
Type in all cases: cell-based
E. coli JMI 10768 = assay: MIC, antibacterial and synergistic activity; settings: substance alone
K. pneumo JMI 2681 = assay: MIC, antibacterial and synergistic activity; settings: substance alone
E. coli JMI 4080 = assay: MIC, antibacterial and synergistic activity; settings: substance alone
E. coli JMI 10770 = assay: MIC, antibacterial and synergistic activity; settings: substance alone
K. pneumo JMI 4109 = assay: MIC, antibacterial and synergistic activity; settings: substance alone
E. coli JMI 2665 = assay: MIC, antibacterial and synergistic activity; settings: for MIC alone: substance alone
K. pneumo JMI 2674 = assay: MIC, antibacterial and synergistic activity; settings: substance alone
E. coli JMI 2692 = assay: MIC, antibacterial and synergistic activity; settings: substance alone
Procedure: (§1) In the Tables 10-12, compounds of the present invention were tested in combination with various antibiotics against metallo β-lactamase producing bacteria.

P. aerug JMI 149 = assay: MIC, antibacterial and synergistic activity; settings: substance alone
Procedure: as §1

E. coli JMI 2671 = assay: MIC, antibacterial and synergistic activity; settings: substance alone
Procedure: as §1

K. pneumo JMI 2693 = assay: MIC, antibacterial and synergistic activity; settings: substance alone
Procedure: as §1

E. coli JMI 10767 = assay: MIC, antibacterial and synergistic activity; settings: substance alone
Procedure: as §1

E. cloacae JMI 36 = assay: MIC, antibacterial and synergistic activity; settings: substance alone
Procedure: as §1

E. coli ATCC 25922 = assay: MIC, antibacterial and synergistic activity
Procedure: as §1

K. pneumo JMI 2699 = assay: MIC, antibacterial and synergistic activity; settings: substance alone
Procedure: as §1

K. pneumo JMI 2697 = assay: MIC, antibacterial and synergistic activity; settings: substance alone
Procedure: as §1

A. baumanii JMI 2659 = assay: MIC, antibacterial and synergistic activity; settings: substance alone
Procedure: as §1

K. pneumo JMI 4088 = assay: MIC, antibacterial and synergistic activity; settings: substance alone
E. coli JMI 11103 = assay: MIC, antibacterial and synergistic activity; settings: substance alone
K. pneumo JMI 4106 = assay: MIC, antibacterial and synergistic activity; settings: K. pneumo JMI 4106, KPC-3, TEM-1, SHV-12, SHV-141; substance alone
P. aerug JMI 2686 = assay: MIC, antibacterial and synergistic activity; settings: substance alone
K. pneumo JMI 2673 = assay: MIC, antibacterial and synergistic activity; settings: substance alone
E. coli JMI 4103 = assay: MIC, antibacterial and synergistic activity; settings: substance alone
[1] = test system: metallo β-lactamase producing bacteria; assay: MIC in combination with various antibiotics against metallo β-lactamase producing bacteria (Tables 10-12); settings: substance alone
Procedure: as §1

[2] = K. pneumo JMI 2681, Oxa-48 (Cpase)
[3] = K. pneumo JMI 4109, SHV-1, SHV-12
[4] = K. pneumo JMI 2674, CTX-M15 (ESBL)
[5] = K. pneumo JMI 2693, NDM-1 (Cpase)
[6] = K. pneumo JMI 2699, VIM-1, CTX-M3
[7] = K. pneumo JMI 2697, IMP-4 (Cpase)
[8] = K. pneumo JMI 4088, KPC-3 (Cpase)
[9] = P. aerug JMI 2686, KPC-2 (Cpase)
[10] = K. pneumo JMI 2673, CTX-M14 (ESBL)

O=C(NNC(=O)[C@H]1CC[C@H]2CN1C(=O)N2OS(=O)(=O)O)C1CNC1 (stereo in doubt) [Ex. 67, (2R,5S)-N′-(azetidin-3-ylcarbonyl)-7-oxo-6-(sulfooxy)-1,6-diazabicyclo[3.2.1]octane-2-carbohydrazide]
8 µg/mL: MIC (E. coli JMI 2665; Escherichia coli, JMI2665, read-out: MIC alone) | MIC (E. coli JMI 2692; Escherichia coli, JMI2692, E. coli JMI 2692, NDM-1, TEM-1, CTX-M-15) | MIC (K. pneumo JMI 4106)
> 16 µg/mL: MIC (E. coli JMI 10768; Escherichia coli, JMI10768, E. coli JMI 10768, CTX-M15 (Weak ESBL)) | MIC (K. pneumo JMI 2681; [2]) | MIC (E. coli JMI 10770; Escherichia coli, JMI10770, E. coli JMI 10770, CTX-M15 (Hyper ESBL)) | MIC (K. pneumo JMI 2674; [4]) | MIC (E. coli JMI 2671; Escherichia coli, JMI2671, E. coli JMI 2671, VIM-19 (Cpase)) | MIC (K. pneumo JMI 2693; [5]) | MIC (E. coli JMI 10767; Escherichia coli, JMI10767, E. coli JMI 10767, Wt) | MIC (E. cloacae JMI 36; Enterobacter cloacae, JMI36, E. cloacae JMI 36, P99) | MIC (E. coli ATCC 25922; Escherichia coli, ATCC25922, E. coli ATCC 25922, enzyme Wt; substance alone) | MIC (K. pneumo JMI 2699; [6]) | MIC (A. baumanii JMI 2659; Acinetobacter baumannii, JMI2659, A. baumanii JMI 2659, Ges-14 (Cpase)) | MIC (E. coli JMI 11103; Escherichia coli, JMI11103, E. coli JMI 11103, CTX-M15 (Intermediate ESBL)) | MIC (K. pneumo JMI 2673; [10])
16 µg/mL: MIC (E. coli JMI 4080; Escherichia coli, JMI4080, E. coli JMI 4080, Tem-10) | MIC (P. aerug JMI 149; P. aerug JMI 149, Bla+++D+) | MIC (K. pneumo JMI 2697; [7]) | MIC (K. pneumo JMI 4088; [8]) | MIC (P. aerug JMI 2686; [9]) | MIC (E. coli JMI 4103; Escherichia coli, JMI4103, E. coli JMI 4103, KPC-2, Tem-1, CMY-Type)
4 µg/mL: MIC (K. pneumo JMI 4109; [3])

C[C@@H](O)[C@H]1C(=O)N2C(C(=O)O)=C(S[C@@H]3CN[C@H](C(=O)N(C)C)C3)[C@H](C)[C@H]12 [Meropenem, meropenem]
16 µg/mL: MIC alone ([1]; Citrobacter freundii isolate 49469, NDM-1) | MIC alone ([1]; Enterobacter cloacae isolate 10, IMP-26) | MIC alone ([1]; Enterobacter cloacae isolate 25, IMP-4)
64 µg/mL: MIC alone (K. pneumo JMI 2681; [2]) | MIC alone (K. pneumo JMI 2681; K. pneumo JMI 2681, enzyme Oxa-48 (Cpase)) | MIC alone ([1]; Enterobacter aerogenes isolate 8397, VIM-1) | MIC alone ([1]; Escherichia coli isolate 53749, NDM-1) | MIC alone (E. coli JMI 2671; E. coli JMI 2671, VIM-19 (Cpase)) | MIC alone (E. coli JMI 2671; E. coli JMI 2671, enzyme VIM-19 (Cpase)) | MIC alone (K. pneumo JMI 2697; [7]) | MIC alone (K. pneumo JMI 2697; K. pneumo JMI 2697, enzyme IMP-4 (Cpase)) | MIC alone (A. baumanii JMI 2659; A. baumanii JMI 2659, Ges-14 (Cpase)) | MIC alone (A. baumanii JMI 2659; A. baumanii JMI 2659, enzyme Ges-14 (Cpase)) | MIC alone (E. coli JMI 4103; E. coli JMI 4103, KPC-2, Tem-1, CMY-Type) | MIC alone (E. coli JMI 4103; E. coli JMI 4103, enzyme KPC-2, Tem-1, CMY-Type)
32 µg/mL: MIC alone ([1]; Enterobacter cloacae isolate 53477, NDM-1) | MIC alone ([1]; Escherichia coli isolate 17, NDM-1) | MIC alone ([1]; Klebsiella oxytoca isolate 24825, IMP-26) | MIC alone ([1]; Klebsiella pneumoniae isolate 38, NDM-1) | MIC alone (K. pneumo JMI 2699; [6]) | MIC alone (K. pneumo JMI 2699; K. pneumo JMI 2699, enzyme VIM-1, CTX-M3)
512 µg/mL: MIC alone (K. pneumo JMI 4088; [8]) | MIC alone (K. pneumo JMI 4088; K. pneumo JMI 4088, enzyme KPC-3 (Cpase)) | MIC alone (P. aerug JMI 2686; [9]) | MIC alone (P. aerug JMI 2686; P. aerug JMI 2686, enzyme KPC-2 (Cpase))
256 µg/mL: MIC alone (E. coli JMI 2692; E. coli JMI 2692, NDM-1, TEM-1, CTX-M-15) | MIC alone (E. coli JMI 2692; E. coli JMI 2692, enzyme NDM-1, TEM-1, CTX-M-15)
1 µg/mL: MIC alone ([1]; Providencia stuartii isolate 26582, VIM-1)
4 µg/mL: MIC alone ([1]; Enterobacter cloacae isolate 1874, IMP-21) | MIC alone ([1]; Escherichia coli isolate 13, IMP-1) | MIC alone (P. aerug JMI 149; P. aerug JMI 149, Bla+++D+) | MIC alone (P. aerug JMI 149; P. aerug JMI 149, enzyme Bla+++D+)
2 µg/mL: MIC alone ([1]; Enterobacter cloacae isolate 4, VIM-6) | MIC alone ([1]; Enterobacter cloacae isolate 1068, VIM-2) | MIC alone ([1]; Enterobacter cloacae isolate 1471, VIM-1) | MIC alone ([1]; Klebsiella oxytoca isolate 31141, VIM-23)
0.06 µg/mL: MIC alone (E. coli ATCC 25922; E. coli ATCC 25922, enzyme Wt; substance alone) | MIC alone (E. coli ATCC 25922; E. coli ATCC 25922; enzyme Wt; substance alone)
≤1 µg/mL: MIC alone (E. coli JMI 10768; E. coli JMI 10768, CTX-M15 (Weak ESBL)) | MIC alone (E. coli JMI 10768; E. coli JMI 10768, enzyme CTX-M15 (Weak ESBL)) | MIC alone (E. coli JMI 4080; E. coli JMI 4080, Tem-10) | MIC alone (E. coli JMI 4080; E. coli JMI 4080, enzyme Tem-10) | MIC alone (E. coli JMI 10770; E. coli JMI 10770, CTX-M15 (Hyper ESBL)) | MIC alone (E. coli JMI 10770; E. coli JMI 10770, enzyme CTX-M15 (Hyper ESBL)) | MIC alone (K. pneumo JMI 4109; [3]) | MIC alone (K. pneumo JMI 4109; K. pneumo JMI 4109, enzyme SHV-1, SHV-12) | MIC alone (E. coli JMI 2665; E. coli JMI 2665, CMY-2 (Plasmid Cpase)) | MIC alone (E. coli JMI 2665; E. coli JMI 2665, enzyme CMY-2 (Plasmid Cpase)) | MIC alone (K. pneumo JMI 2674; [4]) | MIC alone (K. pneumo JMI 2674; K. pneumo JMI 2674, enzyme CTX-M15 (ESBL)) | MIC alone (E. coli JMI 10767; E. coli JMI 10767, Wt) | MIC alone (E. coli JMI 10767; E. coli JMI 10767, enzyme Wt) | MIC alone (E. cloacae JMI 36; E. cloacae JMI 36, P99) | MIC alone (E. cloacae JMI 36; E. cloacae JMI 36, enzyme P99) | MIC alone (E. coli JMI 11103; E. coli JMI 11103, CTX-M15 (Intermediate ESBL)) | MIC alone (E. coli JMI 11103; E. coli JMI 11103, enzyme CTX-M15 (Intermediate ESBL)) | MIC alone (K. pneumo JMI 2673; [10]) | MIC alone (K. pneumo JMI 2673; K. pneumo JMI 2673, enzyme CTX-M14 (ESBL))
8 µg/mL: MIC alone ([1]; Enterobacter aerogenes isolate 47683, VIM-12) | MIC alone ([1]; Enterobacter cloacae isolate 3686, IMP-1) | MIC alone ([1]; Escherichia coli isolate 49, NDM-1) | MIC alone ([1]; Klebsiella pneumoniae isolate 16, VIM-5) | MIC alone ([1]; Serratia marcescens isolate 35, IMP-4) | MIC alone ([1]; Serratia marcescens isolate 36098, IMP-19) | MIC alone (K. pneumo JMI 2693; [5]) | MIC alone (K. pneumo JMI 2693; K. pneumo JMI 2693, enzyme NDM-1 (Cpase))

Source: patent US10544146B2, “Bicyclic compounds and their use as antibacterial agents and β-lactamase inhibitors” (priority 2011, dated 2020)
